Converted amounts (≈) assume the structure as drawn. Read-outs that look alike come from different tables or passages of the source.
Legend:
[1] = target: T1, GSK3β-HiBiT (GSK3β-HiBiT KI HEK293 cells) (Homo sapiens, UniProt P49841); experiment: HiBiT lytic degradation assay / high-throughput screen, 24 h; assay type: cell-based; conditions: 24 h treatment; for DC50: pure (resynthesised, HPLC purified) compound
T1 construct: we generated endogenously tagged GSK3β-HiBiT knock-in (KI) HEK293 cells; endogenous in cells; host or cells: GSK3β-HiBiT knock-in HEK293 cells (CRISPR/Cas9, single-cell clone)
Protocol: Crude compounds were assumed to be 10 mM concentration in DMSO and after generating libraries directly used in biological tests in degradation screens. Stock solutions were serially diluted into white bottom opaque 384-well plates (Perkin Elmer) using Echo500 (Labcyte) and DMSO was backfilled to maintain same DMSO content in each well for all concentrations. […] HiBiT lytic assay buffer (Promega) prepared according to the manufacturer’s instructions and added onto each well using Multidrop^TM Combi reagent dispenser. Luminescence signal was measured on PheraStar plate reader (BMG) and obtained data normalised to DMSO conditions using Excel and further analysed using GraphPad Prism (v10.1.2) and degradation curves were generated using 4-parameter non-linear regression fit to calculate DC50 and Dmax values. Data points associated with concentrations displaying a hook effect were excluded prior to DC50 and Dmax calculation.

[2] = Intrinsic clearance (Cli), rat liver microsomes; assay type: in vitro ADME; conditions: 0.5 µM, scaling factor 46 mg microsomal protein per g liver
Protocol: (§1) Test compound (0.5 µM) was incubated with female CD1 mouse, male rat Han Wistar and pooled human liver microsomes (Xenotech^TM; 0.5 mg/mL 50 mM potassium phosphate buffer, pH7.4) and the reaction started with addition of excess NADPH (8 mg/mL 50 mM potassium phosphate buffer, pH7.4). Immediately, at time zero, then at 3, 6, 9, 15 and 30 min an aliquot (50 µL) of the incubation mixture was removed and mixed with acetonitrile (100 uL) to stop the reaction. An internal standard was added to all samples, the samples centrifuged to sediment precipitated protein and the plates then sealed prior to UPLC-MSMS analysis (Xevo TQ-S Micro, Waters^TM). XLfit (IDBS, UK) was used to calculate the exponential decay and consequently the rate constant (k) from the ratio of peak area of test compound to internal standard at each timepoint. The rate of intrinsic clearance (CLi) of each test compound was then calculated using the following calculation:1 CLi(mL/min/gliver)=kxVxMicrosomalproteinyield Where V (mL/mg protein) is the incubation volume/mg protein added and microsomal protein yield is taken as 48 mg, 46 mg and 40 mg protein/g liver for mouse, rat and human, respectively. Verapamil (0.5 µM) was used as a positive control to confirm acceptable assay performance.

[3] = Intrinsic clearance (Cli), human liver microsomes; assay type: in vitro ADME; conditions: 0.5 µM, scaling factor 40 mg microsomal protein per g liver
Protocol: as §1

[4] = RealSOL kinetic solubility; assay type: physicochemical; conditions: PBS pH 7.4, 24 h, 25 °C; for solubility kinetic at 24 h: phosphate buffered saline, aqueous buffer, kinetic from dmso stock
Protocol: Solubility was assessed using an 'in-house' developed method known as 'RealSOL'. This solubility method measures the solubility in physiological strength phosphate buffered saline starting from 10 mM DMSO solutions of the test compounds. Although a 'kinetic'^[1] solubility method, the long shaking times appears to give solubility values that reflect more closely those made from solid samples when compared to a previous nephelometric method (unpublished in-house data).
Test compounds were dissolved in DMSO to give 10 mM solutions. Solubility test samples were prepared by adding a volume (5 µL) of the 10 mM solution to a volume (195 µL) of phosphate buffered saline, pH 7.4 (Sigma-Aldrich, Cat no. P4417, made as per manufacturer’s instructions). This solution was then mixed for 24 h (rotary mixing, 900 rpm, 25 °C) excluding light.
After mixing, the solubility test samples were filtered to remove any undissolved material using a proprietary filter (Millipore Multiscreen HTS filter, 96-well format). Samples were drawn through the filter using a vacuum.
The filtrate from the above was analysed for dissolved drug compound using a truncated UHPLC methodology. A Shimadzu Nexera X2 UHPLC system was used, with a reversed-phase column and a simple formic acid gradient elution. The UHPLC parameters are shown in Supporting Information Table 5.
A calibration solution was prepared in the following way: the same 10 mM solution used to prepare the solubility test sample was diluted in DMSO to give a 500 µM solution. This solution was then again diluted with 50:50 acetonitrile: water to give a 50 µM solution. Aliquots (0.2, 2.0 and 5.0 µL) of this 50 µM solution were then injected onto the UHPLC system and the areas of the resultant peaks integrated to produce a calibration line. Aliquots of the test sample filtrate (0.4 and 5.0 µL) were then injected onto the UHPLC system and the resultant peak areas for any peaks corresponding to the test compound determined and quantified using the calibration line (the injection volume that gave a peak area closest to the calibrated range was used for determining solubility).

[5] = Brain binding, equilibrium dialysis; assay type: in vitro ADME; conditions: brain tissue homogenate
Protocol: As for plasma protein binding experiments, 96-well equilibrium dialysis apparatus was used to determine the free fraction in brain tissue homogenate for each compound (HT Dialysis LLC, Gales Ferry, CT). Membranes (12–14 kDA cut-off) were conditioned in deionised water for 60 min, followed by conditioning in 80:20 deionised water: ethanol for 20 min, and then rinsed in isotonic buffer before use. Frozen brain tissue was thawed and homogenised in artificial CSF at a ratio of 3:1. Homogenate was then spiked with test compound (final concentration 10 μg/mL), and 150 μL aliquots (n = 6 replicate determinations) loaded into the 96-well equilibrium dialysis plate. Dialysis vs artificial CSF was carried out for 5 h in a temperature-controlled incubator at ca. 37 °C (Barworld Scientific Ltd, UK) using an orbital microplate shaker at 100 revolutions/minute (Barworld Scientific Ltd, UK). 150 μL aliquots of spiked homogenate were stored at 37 °C and 4 °C for the course of the experiment to determine recovery. At the end of the incubation period, 50 μL aliquots of homogenate or buffer were transferred to a 96 deepwell plate (Waters^TM) and the composition in each was balanced with control fluid (50 μL), such that the volume of buffer to brain homogenate is the same. Sample extraction was performed by the addition of 200 μL of acetonitrile containing an appropriate internal standard. Samples were allowed to mix for 1 min and then centrifuged at 3000 rpm in 96-well blocks for 15 min (Allegra X12-R, Beckman Coulter, USA), after which 150 μL of supernatant was removed to 50 μL of water. All samples were analysed by UPLC-MS/MS. The unbound fraction was determined as the ratio of the peak area in buffer to that in homogenate using the following equation:2 Afu=Buffer/Matrix where Afu means apparent fraction unbound
Buffer = Analyte/IS ratio in buffer side […]
The recovery of the dialysed samples was calculated by comparing the sum of the peak areas (buffer and matrix) of any test compound at 37 °C to that of the same compound at 4 °C. […]

[6] = HEK293, crude mixture, stock assumed 10 mM
[7] = HEK293, pure (resynthesised, HPLC purified) compound
[8] = 10 μg/mL, 5 h dialysis, read-out: Brain Tissue Binding (Fu)

T1 sequence (P49841 whole entry): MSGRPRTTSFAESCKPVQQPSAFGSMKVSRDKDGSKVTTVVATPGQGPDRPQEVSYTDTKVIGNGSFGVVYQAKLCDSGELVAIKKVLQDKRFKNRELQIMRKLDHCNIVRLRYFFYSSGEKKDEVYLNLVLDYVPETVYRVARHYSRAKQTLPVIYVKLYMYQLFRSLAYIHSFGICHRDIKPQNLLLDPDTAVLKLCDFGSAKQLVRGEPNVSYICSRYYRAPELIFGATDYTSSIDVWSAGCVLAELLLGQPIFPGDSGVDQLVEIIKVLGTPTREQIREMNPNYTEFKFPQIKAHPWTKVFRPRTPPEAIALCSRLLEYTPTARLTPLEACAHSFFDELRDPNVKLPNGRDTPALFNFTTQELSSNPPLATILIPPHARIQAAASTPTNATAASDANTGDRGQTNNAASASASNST

| Structure (SMILES) | Dmax [1, 6] | Dmax [1, 7] | Scaled Microsomal Stability RatClint [2] | Scaled Microsomal Stability HuClint [3] | solubility kinetic at 24 h [4] | fraction unbound at 5 h, 10 μg/mL [5, 8] | DC50 ([1]; listed as KH1 (24)) | RealSol [4] | fraction unbound at 5 h, 10 μg/mL ([5]; brain binding, read-out: measured free fraction in brain) | DC50 ([1]; listed as KH2 (26)) |
| --- | --- | --- | --- | --- | --- | --- | --- | --- | --- | --- |
| O=C1CCC(NC(=O)c2ccc(CN3CCN(Cc4ccc(-c5cn(-c6ccc(-c7cn8nccc(C(=O)Nc9cnccc9N9CCOCC9)c8n7)cc6)nn5)nc4)CC3)cn2)C(=O)N1 (stereo not shown) [compound 22] | 89% | 87% | 0.71 ml/min/g liver | 3.6 ml/min/g liver | < 1 µM | 0.0029 | – | – | – | – |
| Cn1nc(N2CCC(=O)NC2=O)c2ccc(CN3CCN(Cc4ccc(-c5cn(-c6ccc(-c7cn8nccc(C(=O)Nc9cnccc9N9CCOCC9)c8n7)cc6)nn5)nc4)CC3)cc21 [compound 24] | 91% | 93% | 0.51 ml/min/g liver | 0.88 ml/min/g liver | 2.7 µM (≈ 2.43 µg/mL) | – | picomolar to single-digit nanomolar range | low micromolar range | 0.0012 | – |
| Cn1nc(N2CCC(=O)NC2=O)c2ccc(CN3CCN(CCCc4cn(-c5ccc(-c6cn7nccc(C(=O)Nc8cnccc8N8CCOCC8)c7n6)cc5)nn4)CC3)cc21 [compound 26] | 78% | 80% | 1.3 ml/min/g liver | 1.6 ml/min/g liver | 2.3 µM (≈ 1.95 µg/mL) | 0.012 | – | low micromolar range | – | picomolar to single-digit nanomolar range |
